How the values were obtained:
Test in all cases: relative viability (nuclei count vs DMSO), 5 days (fraction); higher = more cells survive
[1] = compound: COc1cccc2cc(-c3nc([C@H]4CC[C@H](C(=O)O)CC4)n4ncnc(N)c34)[nH]c12 [OSI-027] + COc1cc2c(Oc3ccc(NC(=O)C4(C(=O)Nc5ccc(F)cc5)CC4)cc3F)ccnc2cc1OCCCN1CCOCC1 [Foretinib] (partner 0.25 µM)
Method in brief: (§1)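 Dosing by pin tool came one day after lung cancer cell lines were seeded in 1536-well plates, using either one drug or a fixed anchor-drug dose plus five library-drug doses (not always all listed) in √10 steps. After 5 days, nuclei were counted on 4× images. Relative viability is treated-well nuclei count divided by vehicle-well nuclei count, and values are medians of duplicate plates.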

[2] = compound: COc1cccc2cc(-c3nc([C@H]4CC[C@H](C(=O)O)CC4)n4ncnc(N)c34)[nH]c12 [OSI-027] + Nc1nc2[nH]cc(CCc3ccc(C(=O)N[C@@H](CCC(=O)O)C(=O)O)cc3)c2c(=O)[nH]1 [Pemetrexed] (partner 0.2 µM)
Method in brief: as §1

[3] = compound: Cc1nc(NC(=O)N2CCC[C@H]2C(N)=O)sc1-c1ccnc(C(C)(C)C(F)(F)F)c1 [Alpelisib] + CS(=O)(=O)CCNCc1ccc(-c2ccc3ncnc(Nc4ccc(OCc5cccc(F)c5)c(Cl)c4)c3c2)o1 [Lapatinib] (partner 2 µM)
Method in brief: as §1

[4] = compound: Cc1nc(NC(=O)N2CCC[C@H]2C(N)=O)sc1-c1ccnc(C(C)(C)C(F)(F)F)c1 [Alpelisib] + C[C@]1(O)C[C@@H](c2nc(-c3ccc4ccc(-c5ccccc5)nc4c3)c3c(N)nccn32)C1 [Linsitinib] (partner 1 µM)
Method in brief: as §1

| Cell Line | relative viability ([1]; first compound 0.01 µM) | relative viability ([1]; first compound 0.03162 µM) | relative viability ([1]; first compound 0.1 µM) | relative viability ([1]; first compound 0.3162 µM) | relative viability ([1]; first compound 1 µM) | relative viability ([2]; first compound 0.01 µM) | relative viability ([2]; first compound 0.03162 µM) | relative viability ([2]; first compound 0.1 µM) | relative viability ([2]; first compound 0.3162 µM) | relative viability ([2]; first compound 1 µM) | relative viability ([3]; first compound 0.04 µM) | relative viability ([3]; first compound 0.1265 µM) | relative viability ([3]; first compound 0.4 µM) | relative viability ([3]; first compound 1.265 µM) | relative viability ([3]; first compound 4 µM) | relative viability ([4]; first compound 0.04 µM) | relative viability ([4]; first compound 0.1265 µM) | relative viability ([4]; first compound 0.4 µM) | relative viability ([4]; first compound 1.265 µM) | relative viability ([4]; first compound 4 µM) |
| --- | --- | --- | --- | --- | --- | --- | --- | --- | --- | --- | --- | --- | --- | --- | --- | --- | --- | --- | --- | --- |
| LOU-NH91 | 0.924 | 0.914 | 0.818 | 0.8 | 0.58 | 0.387 | 0.368 | 0.493 | 0.508 | 0.63 | 0.767 | 0.597 | 0.632 | 0.511 | 0.522 | 0.989 | 0.828 | 0.782 | 0.735 | 0.653 |
| PC-14 | 0.937 | 0.843 | 1.03 | 0.958 | 0.847 | 0.136 | 0.149 | 0.149 | 0.139 | 0.191 | 0.358 | 0.401 | 0.301 | 0.265 | 0.235 | 0.91 | 0.894 | 0.98 | 0.856 | 0.816 |
| H3255 | 0.772 | 1.03 | 0.811 | 0.865 | 0.481 | 0.517 | 0.569 | 0.507 | 0.513 | 0.495 | 0.242 | 0.215 | 0.259 | 0.203 | 0.197 | 0.979 | 1.01 | 1.07 | 0.715 | 0.794 |
| NCI-H650 | 1.08 | 1.09 | 1.01 | 0.868 | 0.514 | 0.878 | 1.03 | 0.836 | 0.671 | 0.367 | 0.84 | 0.538 | 0.876 | 0.683 | 0.869 | 0.819 | 0.706 | 0.894 | 0.587 | 0.807 |
| NCI-H1563 | 0.937 | 0.857 | 0.909 | 0.839 | 0.854 | 0.754 | 0.719 | 0.72 | 0.755 | 0.543 | 0.873 | 0.941 | 1.03 | 0.857 | 0.868 | 1.18 | 1.19 | 1.2 | 1.06 | 1.19 |
| HCC-366 | 0.98 | 1.05 | 0.978 | 0.878 | 0.748 | 0.18 | 0.162 | 0.175 | 0.186 | 0.206 | 1.04 | 1.02 | 1.14 | 0.824 | 0.535 | 0.716 | 0.519 | 0.375 | 0.327 | 0.152 |
| EKVX | 0.707 | 0.764 | 0.74 | 0.568 | 0.581 | 0.438 | 0.391 | 0.486 | 0.382 | 0.403 | 0.195 | 0.34 | 0.184 | 0.174 | 0.175 | 0.923 | 0.941 | 1.11 | 0.901 | 0.821 |
| NCI-H1734 | 0.87 | 0.92 | 0.799 | 0.726 | 0.477 | 0.416 | 0.436 | 0.371 | 0.412 | 0.386 | 1.09 | 0.989 | 1.11 | 0.771 | 0.373 | 0.814 | 0.885 | 0.875 | 0.71 | 0.489 |
| CAL-12T | 1.16 | 1.22 | 1.14 | 1.13 | 0.488 | 1.17 | 1.18 | 1.22 | 0.976 | 0.527 | 0.678 |  | 0.658 |  | 0.496 | 0.801 | 0.67 | 0.814 | 0.784 | 0.76 |
| NCI-H2347 | 0.914 | 1.15 | 0.633 | 0.494 | 0.468 | 0.438 | 0.439 | 0.484 | 0.404 | 0.427 | 0.991 | 0.989 | 1.33 | 0.873 | 0.83 | 0.997 | 0.941 | 1.03 | 0.84 | 0.952 |
| SK-MES-1 | 0.874 | 1.1 | 0.926 | 0.69 | 0.447 | 0.998 | 0.919 | 0.866 | 0.782 | 0.359 | 0.454 | 0.463 | 0.483 | 0.409 | 0.37 | 1.13 | 1.04 | 1.22 | 0.939 | 0.99 |
| NCI-H3122 | 1.02 | 0.998 | 1.03 | 0.98 | 0.45 | 0.207 | 0.198 | 0.19 | 0.207 | 0.243 | 1.01 | 1.02 | 1.07 | 1.02 | 0.919 | 0.994 | 0.938 | 1.02 | 0.715 | 0.675 |
| NCI-H23 | 0.908 | 0.937 | 0.929 | 0.653 | 0.464 | 0.617 | 0.757 | 0.598 | 0.47 | 0.395 | 1.09 | 0.845 | 1.04 | 0.621 | 0.839 | 0.527 | 0.576 | 0.672 | 0.524 | 0.513 |
| NCI-H2228 | 0.887 | 0.791 | 0.831 | 0.745 | 0.439 | 0.43 | 0.348 | 0.322 | 0.327 | 0.208 | 1.02 | 0.788 | 1.07 | 0.794 | 0.486 | 0.762 | 0.496 | 0.564 | 0.517 | 0.287 |
| HCC-15 | 1.11 | 0.954 | 0.969 | 0.895 | 0.58 | 0.221 | 0.239 | 0.211 | 0.227 | 0.231 | 0.897 | 0.858 | 0.94 | 0.823 | 0.725 | 0.892 | 0.873 | 0.878 | 0.863 | 0.767 |
| NCI-H358 | 0.68 | 0.562 | 0.699 | 0.703 | 0.576 | 0.185 | 0.171 | 0.176 | 0.132 | 0.151 | 0.442 | 0.382 | 0.389 | 0.297 | 0.368 | 0.683 | 0.657 | 0.605 | 0.334 | 0.397 |

Reference: the supplement of paper PMC10307832
